Measurements published in PMC8752476 (Journal of molecular biology, 2021).

What was measured:
[1] = molecular target: Abl^Y272H/A363V; assay: Kinase assay, phosphorylation of CrkII, Abl Y272H/A363V; type: biochemical, human
[2] = system: Abl^FK (SH3-SH2 module and kinase domain); assay: NMR; design: species or system human; settings: GNF5 displaces imatinib from the myristoyl pocket

Compound | kinase activity of Abl^Y272H/A363V in the presence of imatinib ([1]; 2 mM ATP, compared with Abl^Y272H/L359A) | effect on catalytic activity of Abl^Y272H/A363V at high ATP ([1]; 20 mM ATP) | kinase activity of Abl^Y272H/A363V in the presence of both imatinib and GNF5 ([1]; 2 mM ATP) | effect on equilibrium, GNF5 added to imatinib-bound Abl^FK [2]
Cc1ccc(NC(=O)c2ccc(CN3CCN(C)CC3)cc2)cc1Nc1nccc(-c2cccnc2)n1 [imatinib] | significantly higher than the activity of Abl^Y272H/L359A | significantly increases the catalytic activity | – | –
O=C(NCCO)c1cccc(-c2cc(Nc3ccc(OC(F)(F)F)cc3)ncn2)c1 [GNF5] | – | – | strongly suppressed | shifts the population almost fully towards the inhibited state
